“Also recorded” adds a separate entry of the source. Bridge positions count the residues as written; N and C are the ends. Square brackets hold non-standard residues; d marks the D form. Triazole bridges read from a SMILES are 1,4-linked. Ends that are not written are not given here. Peptide text beside a SMILES is read from it. Lys(N3) = [N-]=[N+]=NCCCC[C@H](N)C(=O)O; Pra = C#CC[C@H](N)C(=O)O
What was measured:
[1] = target: full-length recombinant MrkA protein (Klebsiella pneumoniae, UniProt P12267); assay type: binding; settings: sandwich ELISA, alanine scan and analogues
Excerpt: HPraGly is present before X1 in each peptide and Az4 follows X5 in each peptide.

[2] = tested on: wild type KPPR1 (ATCC 43816) cells; assay: Whole-cell ELISA, biotinylated PCC, wild type KPPR1; assay type: cell-based, Klebsiella pneumoniae; settings: biotinylated PCC 5 μM down to 5 nM, G-CAA media
Procedure: In this assay, bacteria are exposed to biotinylated PCC ligands, then SAv-horseradish peroxidase (SAv-HRP), and then developed to produce a colorometric signal that correlates with SAv-HRP binding.
Whole-cell ELISA assays were conducted on the wild type version of the clinically-relevant strain of K. pneumoniae, KPPR1 (ATCC 43816). Wild type KPPR1 cells were cultured in G-CAA media to promote fimbrial expression (54), and MrkA expression in KPPR1 was confirmed by a western blot (FIG. 5B inset, full blot in FIG. 9).
(§1) Detection of the binding of biotinylated PCCs to bacterial surface was performed as follows. 10^8 bacteria from a culture grown overnight were used for each test. Bacteria were incubated with PBS containing 1% BSA (PBS-BSA) for 1 h at 37° C., washed once with PBS, and then incubated with 5 μM of the biotinylated PCC in PBS-BSA for 1 h at 37° C. After washing thrice with PBS to remove unbound PCCs, bacteria were incubated with Streptavidin-HRP (1:1000) for 1 h at 37° C. Bacteria were washed thoroughly and the TMB reagent was added until visible coloration was observed. The reaction was quenched using 2N H2SO4 and absorbance was measured at 450 nm.

[3] = tested on: MrkA-knockout KPPR1 cells; assay: Whole-cell ELISA, biotinylated PCC, MrkA-knockout KPPR1; assay type: cell-based, Klebsiella pneumoniae
Procedure: ELISA signals were only observed for K. pneumoniae cells (strain BAA 1705) cultured in G-CAA (FIG. 11A), when treated with PCCs at concentrations of 5 μM or lower.
as §1

[4] = tested on: K. pneumoniae (strains BAA 1705 & 2146); assay: Whole-cell ELISA, biotinylated PCC, multidrug-resistant K. pneumoniae; assay type: cell-based, Klebsiella pneumoniae; settings: for whole-cell ELISA binding at high PCC concentration: strain BAA 1705, 50 μM PCC, LB or G-CAA; for whole-cell ELISA 450 nm absorbance, cells cultured in G-CAA (high MrkA) / whole-cell ELISA 450 nm absorbance, cells cultured in LB (low MrkA): strain BAA 1705, PCC 5 μM to 5 nM
Procedure: as §1, with “Bacteria were incubated with PBS containing 1% BSA (PBS-BSA) for 1 h at 37° C., washed once with PBS, and then incubated with 5 μM of the biotinylated PCC in PBS-BSA for 1 h at 37° C.” left out

Escherichia coli = assay: Whole-cell ELISA, biotinylated PCC, E. coli; assay type: cell-based; settings: biotinylated PCC at 5 μM, FIG. 5C
Procedure: (§2) Whole-cell ELISA data in FIG. 5C show strong signal from the two strains of K. pneumoniae (BAA 1705 and BAA 2146) but only weak signals from Escherichia coli (E. coli) or Salmonella typhimurium (S. typhimurium) cells. […] In these tests, droplets of phosphate buffered solution containing live bacteria or heat-killed bacteria and various concentrations of (NH4)2SO4 at 10 m or 30 m following mixing were imaged. Aggregation in each droplet was assessed by visual inspection and scored as indicating non-aggregated, low levels of aggregation, or extensive aggregation. All droplets were on a single glass slide and image acquisition of all droplets took less than a minute for each 10 m and 30 m time point.
as §1

Salmonella typhimurium = assay: Whole-cell ELISA, biotinylated PCC, S. typhimurium; assay type: cell-based; settings: biotinylated PCC at 5 μM, FIG. 5C
Procedure: as §2, §1

[5] = tested on: K. pneumoniae cells, BAA 1705 and BAA 2146; assay: Whole-cell ELISA, anti-DNP recruitment to bacterial cell surfaces; assay type: cell-based, Klebsiella pneumoniae; settings: cy(LLFFF)-DNP 5 or 10 μM; dummy cy(HNGPT)-DNP 50 and 100 μM; plus anti-DNP
Procedure: FIG. 12 is a plot of 450 nm absorbances obtained from a cell-based ELISA assay conducted on two strains of K. pneumoniae cells, BAA 1705 (black) and BAA 2146 (orange), that were either untreated or opsonized by EPIs (AR-PCCs) and/or antibodies. […] This establishes EPI-driven opsonization by cy(LLFFF)-DNP (SEQ ID NO:5).
The protocol for detecting anti-DNP recruitment to bacterial cell surfaces is as follows. Bacteria were incubated with the desired concentration of DNP-conjugated PCCs in PBS-BSA for 1 h at 37° C. Residual PCCs were washed off by using PBS-BSA and bacteria were incubated with anti-DNP antibody (1:1000) for 1 h at 37° C. After washing, bacteria were incubated with HRP conjugated secondary antibody (Bio-Rad) at a dilution of 1:10,000 for 1 h at 37° C. Unbound antibody was washed off by using PBS-BSA and the cells were then developed by using TMB reagent. The reaction was quenched using 2N H2SO4 and absorbance was measured at 450 nm. Anti-MrkA antibody was procured from Biorbyt (orb51318) and used at a concentration of 5 μg/mL, and K. pneumoniae antiserum was obtained from abcam (ab20947) and used at a concentration of 5 μg/mL.

[6] = tested on: K. pneumoniae cells (strain BAA 1705); assay: Gentamicin protection assay: phagocytosis and opsonophagocytic killing (OPK) by macrophages; assay type: cell-based, Klebsiella pneumoniae
Procedure: It also tested whether DNP-conjugated EPIs could promote the opsonophagocytic killing (OPK) of K. pneumoniae by macrophages. This was tested by using an OPK assay. Briefly, K. pneumoniae cells were treated with EPI and then anti-DNP antibody before being exposed to macrophages for either 6 or 24 hours. During this incubation period, macrophages that recognize K. pneumoniae cells will phagocytose them, and phagocytosed bacteria will remain viable for up to 6 hours, but within 24 hours are rendered inviable by OPK. Thus, macrophages were isolated after 6 and 24 hours of incubation with K. pneumoniae, lysed them, and plated and grew the lysate, which yielded bacterial colonies that reflect the phagocytosis (at 6 hrs) or OPK (at 24 hrs) of bacteria.
Given that cy(LLFFF)-DNP (SEQ ID NO:5) recruits antibodies to K. pneumoniae surfaces, it was expected that K. pneumoniae opsonized in this manner would be more susceptible to phagocytosis by macrophages. AR-PCC-driven phagocytosis and OPK were quantified by a gentamicin protection assay, as depicted in FIG. 7A. For this assay, K. pneumoniae cells (strain BAA 1705) were treated with cy(LLFFF)-DNP (SEQ ID NO:5), opsonized by anti-DNP antibodies, and then incubated with murine bone-marrow-derived macrophages (BMDMs). BMDMs were subsequently exposed to a solution containing gentamicin, to which K. pneumoniae strain BAA 1705 is susceptible, to kill any extracellular bacteria. Phagocytosed bacteria remain viable inside BMDMs for at least 1 h, yet are rendered inviable after 24 h by OPK (FIG. 13). Macrophages harvested at 1 h and 24 h were lysed and plated to generate bacterial colonies, which were enumerated to quantify phagocytosis and OPK.
Klebsiella pneumoniae BAA1705 was treated with DNP-PCCs followed by incubation with anti-DNP antibody, as described above in the “Cell-Based ELISAs” section. These opsonized bacteria were then used to infect BMDMs at a multiplicity of infection of 50 for 0.5 h at 37° C. Bacteria were then washed by using RPMI 1640 Media and BMDMs were left in cell culture medium containing gentamicin (100 μg/ml). After 1 h and 24 h BMDMs were washed to remove gentamicin and intracellular bacteria were harvested by lysing BMDMs in RPMI media containing 0.2% Triton X 100. Bacterial CFUs were enumerated by plating onto LB agar. Bacterial counts at 1 h indicated the degree of opsonization while those at 24 h served as a measure of microbicidal activity of macrophages. For these measurements, anti-MrkA antibody and K. pneumoniae antiserum were used at dilutions of 5 μg/mL each.

SynEp 1 = SynEp 1 (Klebsiella pneumoniae, UniProt P12267, V41X); assay: Epitope selectivity sandwich ELISA, immobilized SynEp 1; settings: DNP-conjugated ligand at 500 nM, background biotin-PEG6
[7] = tested on: K. pneumoniae cells (strain BAA 2146); assay: Flow cytometry, recruitment of fluorescent anti-DNP antibodies; assay type: cell-based, Klebsiella pneumoniae; settings: 50 μM AR-PCC plus Alexafluor 488 anti-DNP
[8] = tested on: live MRSA cells or heat-killed MRSA cells; assay: ELISA, PCC-driven SAv-HRP recruitment to MRSA cells; assay type: cell-based, Staphylococcus aureus; settings: biotinylated PCC, with or without 0.4 micrograms/mL tunicamycin
Procedure: FIG. 16A-16B are graphs showing PCC-driven recruitment of streptavidin-horseradish peroxidase (SAv-HRP) conjugate to live MRSA cells (FIG. 16A) or heat-killed MRSA cells (FIG. 16B) cultured under different antibiotic conditions via enzyme-linked Immunosorbent Assays (ELISAs). All tests were conducted by coating the antigen (MRSA cells) onto the wells of 96-well plates and then exposing the wells solutions containing biotinylated PCCs, then SAv-HRP, then HRP substrate followed by detection via absorbance at 450 nm. Absorbance values greater than the “no PCC” background indicate that several PCCs recruit SAv-HRP to either live cells (FIG. 16A) or heat-killed cells (FIG. 16B) cultured either without antibiotic (“−tunicamycin”, blue bars) or with 0.4 micrograms/mL of tunicamycin (“+tunicamycin”, red), which reduces the expression of wall teichoic aids by MRSA. All measurements were conducted in triplicate and error bars reflect standard deviations. The PCC sequences are, from left to right in both graphs, SEQ ID NOs: 6, 23, 34, and 29.
The recruitment ability of selected PCCs was assessed by PCC-driven recruitment of streptavidin-horseradish peroxidase (SAv-HRP) conjugate to live MRSA cells (FIG. 16A) or heat-killed MRSA cells (FIG. 16B) cultured under different antibiotic conditions via enzyme-linked Immunosorbent Assays (ELISAs). […]

Molecule	whole-cell ELISA signal, wild type KPPR1 [2]	whole-cell ELISA signal, MrkA-knockout KPPR1 [3]	whole-cell ELISA binding at high PCC concentration [4]	whole-cell ELISA 450 nm absorbance, cells cultured in G-CAA (high MrkA) [4]	whole-cell ELISA 450 nm absorbance, cells cultured in LB (low MrkA) [4]	whole-cell ELISA signal, E. coli (Escherichia coli)	whole-cell ELISA signal, S. typhimurium (Salmonella typhimurium)	450 nm absorbance, anti-DNP opsonization of K. pneumoniae [5]	SAv-HRP recruitment to MRSA cells [8]	also measured
CC(C)C[C@@H]1NC(=O)[C@H](CC(C)C)NC(=O)[C@@H](N)Cc2cn(nn2)CCCC[C@@H](C(=O)O)NC(=O)[C@H](Cc2ccccc2)NC(=O)[C@H](Cc2ccccc2)NC(=O)[C@H](Cc2ccccc2)NC1=O [cy(LLFFF)] (H-[Pra]LLFFF[Lys(N3)]-OH; triazole 1-7)	strong signals; also recorded: binds wild type MrkA-expressing KPPR1 cells	comparable to baseline; also recorded: but not MrkA-knockout KPPR1	bound K. pneumoniae cells regardless of MrkA-expression level; also recorded: strong and comparable ELISA signals	strong absorbances	near-baseline absorbances	small absorbances; also recorded: weak signals	small absorbances; also recorded: weak signals	much larger signal		binding to full-length MrkA compared to cy(LLFFF) [1]: highest affinity; binding selectivity towards MrkA-expressing K. pneumoniae cells versus E. coli and S. typhimurium ([4]; whole-cell ELISA, FIG. 5C): excellent binding selectivity; CFU, DNP-conjugated EPI plus anti-DNP, macrophages harvested at 6 hrs ([6]; 6 hrs): more than 80,000 CFU; cell counts, DNP-conjugated EPI only (no antibody), macrophages harvested at 6 hrs ([6]; 6 hrs): ~35,000; cell counts at 24 h (OPK) ([6]; 24 h of incubation): little to no cell counts; ELISA signal on SynEp 1 (SynEp 1): Negative signals
cy(HNGPT)-DNP (cyclo(HNGPT); also: DNP label) [reference compound]								Much smaller signals		fluorescence intensity of cells (predominantly) [7]: < 1.0×10^1 intensity
cy(LLFFA) (cyclic)	much lower intensities; also recorded: Much lower binding	comparable to baseline; also recorded: Much lower binding	bound K. pneumoniae cells regardless of MrkA-expression level; also recorded: strong and comparable ELISA signals	near-baseline absorbances	near-baseline absorbances	low signals	low signals			whole-cell ELISA signal, K. pneumoniae BAA 1705 and BAA 2146 ([4]; biotinylated PCC at 5 μM, FIG. 5C): low signals; also recorded: no or minimal binding above baseline; colony counts at 1 h, EPI plus anti-DNP antibody ([6]; 5 μM AR-PCC, murine BMDMs, 1 h): 85,000 CFU
cy(akkrp) ([dA][dK][dK][dR][dP]; not fully specified (bridges); printed as cy(akkrp); also: cyclic, closure not given here)									Standout recruiting peptides	
cy(kpdew) ([dK][dP][dD][dE][dW]; not fully specified (bridges); printed as cy(kpdew); also: cyclic, closure not given here)									Standout recruiting peptides	
